Test results taken from ChEMBL document CHEMBL1201862, “PubChem BioAssay data set” (2004).
Active and inactive are the calls of the source.

Experiments:
[1] = NIH3T3 cell viability loss – ATP luminescence, mouse fibroblasts, counter-screen, dose response (AID 2010); format: functional, cell-based;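 further: cells exposed to compound for about 90 hours before reading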
[2] = biological target: T1, Polyadenylate-binding protein 1 (Homo sapiens, UniProt P11940); assay: MLLE domain peptide-binding blockers, IC50 – biochemical, fluorescence polarization, FITC-PAM2 peptide, dose response (AID 602259); format: functional; details: read-out: IC50_Mean
Genome polyprotein = Genome polyprotein (dengue virus type 2, UniProt P29990); assay: flavivirus cap methylation enzyme inhibition – biochemical, confirmation dose response, primary screen (AID 588689); format: functional
Vero = assay: viability of Vero cells under compound – cytotoxicity control for flavivirus capping enzyme inhibitors (AID 588742); format: functional; details: Chlorocebus sabaeus
[3] = biological target: T1, Polyadenylate-binding protein 1; assay: MLLE binding blockers, Cy5 peptide tracer – biochemical, fluorescence polarization, Cy5-PAM2 peptide, secondary, miRNA deadenylation inhibitor project, dose response (AID 602260); format: functional; details: read-out: IC50_Mean
Hexokinase HKDC1 = biological target: T2, Hexokinase HKDC1 (Homo sapiens, UniProt Q2TB90); assay: inhibition of HKDC1 glucose phosphorylation – biochemical, W721R variant, dose response (AID 504729); format: functional
T2 sequence (Q2TB90 whole entry): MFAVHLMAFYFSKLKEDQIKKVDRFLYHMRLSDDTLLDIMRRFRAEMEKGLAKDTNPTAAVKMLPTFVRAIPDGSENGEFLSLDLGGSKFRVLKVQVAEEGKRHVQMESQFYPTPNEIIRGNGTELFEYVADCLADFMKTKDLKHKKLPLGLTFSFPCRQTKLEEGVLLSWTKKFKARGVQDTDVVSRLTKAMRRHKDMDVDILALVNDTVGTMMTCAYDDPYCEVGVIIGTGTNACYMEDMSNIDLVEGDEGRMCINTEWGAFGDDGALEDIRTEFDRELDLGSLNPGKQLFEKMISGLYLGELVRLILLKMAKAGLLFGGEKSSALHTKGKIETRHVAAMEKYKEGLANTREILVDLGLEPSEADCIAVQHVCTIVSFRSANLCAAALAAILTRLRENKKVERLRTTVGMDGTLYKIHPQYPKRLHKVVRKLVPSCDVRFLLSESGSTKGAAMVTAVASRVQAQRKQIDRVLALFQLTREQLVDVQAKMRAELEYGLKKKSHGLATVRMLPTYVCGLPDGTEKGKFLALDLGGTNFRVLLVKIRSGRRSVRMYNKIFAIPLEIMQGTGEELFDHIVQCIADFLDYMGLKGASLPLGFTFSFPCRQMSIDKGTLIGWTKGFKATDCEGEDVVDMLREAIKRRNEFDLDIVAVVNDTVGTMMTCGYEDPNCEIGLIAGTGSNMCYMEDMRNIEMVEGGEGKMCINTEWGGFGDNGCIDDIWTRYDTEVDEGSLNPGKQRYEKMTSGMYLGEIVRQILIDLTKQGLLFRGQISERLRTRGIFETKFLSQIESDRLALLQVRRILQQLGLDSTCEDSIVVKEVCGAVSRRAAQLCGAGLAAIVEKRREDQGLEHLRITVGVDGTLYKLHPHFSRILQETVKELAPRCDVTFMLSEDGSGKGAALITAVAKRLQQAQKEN

[4] = biological target: T3, Rac GTPase-activating protein 1 (Homo sapiens, UniProt Q9H0H5); assay: blockers of MgcRacGAP-driven Rac1 GTP hydrolysis – biochemical, ADP Hunter fluorescence, primary and confirmatory, confirmation (AID 624330); format: functional
T3 sequence (Q9H0H5 whole entry): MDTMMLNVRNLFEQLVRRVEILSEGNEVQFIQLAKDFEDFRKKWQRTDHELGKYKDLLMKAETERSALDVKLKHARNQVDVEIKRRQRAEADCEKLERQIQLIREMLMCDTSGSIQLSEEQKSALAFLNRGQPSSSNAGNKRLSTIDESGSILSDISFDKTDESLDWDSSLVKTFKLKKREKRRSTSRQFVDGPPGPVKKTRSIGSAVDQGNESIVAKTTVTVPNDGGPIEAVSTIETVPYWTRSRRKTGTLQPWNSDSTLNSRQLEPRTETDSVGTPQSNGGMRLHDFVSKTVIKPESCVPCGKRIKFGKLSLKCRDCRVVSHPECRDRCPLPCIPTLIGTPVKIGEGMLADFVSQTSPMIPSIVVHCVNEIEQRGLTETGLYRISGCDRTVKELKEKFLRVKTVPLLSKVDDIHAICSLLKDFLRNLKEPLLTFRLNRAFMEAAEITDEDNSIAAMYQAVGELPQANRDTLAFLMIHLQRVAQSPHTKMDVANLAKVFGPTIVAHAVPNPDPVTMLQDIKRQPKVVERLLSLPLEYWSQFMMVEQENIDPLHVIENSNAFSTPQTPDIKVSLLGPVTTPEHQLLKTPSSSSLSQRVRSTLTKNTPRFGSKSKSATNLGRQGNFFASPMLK

[5] = Trypanosoma cruzi growth suppression in host cells – NIH3T3 host cells, beta-gal luminescence, confirmation (AID 2044); format: functional, cell-based;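 further: intracellular parasites grown in NIH/3T3 mouse fibroblasts as host cells; luminescent beta-galactosidase reporter signal from transgenic T. cruzi replicating inside host cells; inhibitors lower the luminescence signal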
Beta-arrestin-1 = Beta-arrestin-1 (Homo sapiens, UniProt P49407); assay: beta-arrestin/AP2 interaction blockers, potency – biochemical, cherry pick 1, beta2-adaptin appendage, flow cytometry, dose response (AID 588783); format: functional
Beta-galactosidase [6] = biological target: T4, Beta-galactosidase (Escherichia coli, UniProt Q8VNN2); assay: detection-enzyme interference by beta-gal modulators – biochemical, E. coli enzyme, set 3, artefact control for CCR6 antagonist project, dose response (AID 504712); format: functional
[7] = biological target: Type-1 angiotensin II receptor (Homo sapiens, UniProt P30556); assay: antagonism of angiotensin II type 1 receptor – cell-based, uHTS hits, selectivity assay for APJ receptor antagonist project, dose response (AID 463214); format: functional;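 further: antagonist potency against angiotensin II stimulated AT1 response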
Beta-galactosidase [8] = biological target: T4, Beta-galactosidase; assay: PubChem AID 485352; format: functional
[9] = biological target: Lytic switch protein BZLF1 (Epstein-Barr virus (strain B95-8) (HHV-4) (Human herpesvirus 4), UniProt P03206); assay: inhibition of BZLF1 ZTA DNA binding – biochemical, fluorescence polarization, Epstein-Barr virus, 1536-well, counter-screen for EBNA-1 inhibitor project, dose response (AID 2377); set-up: species or system human gammaherpesvirus 4;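 further: fluorescence polarization of Cy5-labelled ZRE DNA probe bound by purified Zta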
[10] = biological target: Epstein-Barr nuclear antigen 1 (Epstein-Barr virus (strain B95-8) (HHV-4) (Human herpesvirus 4), UniProt P03211); assay: inhibition of EBV nuclear antigen 1 DNA binding – biochemical, fluorescence polarization, 1536-well, dose response (AID 2381); set-up: species or system human gammaherpesvirus 4;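 further: fluorescence polarization of a Cy5 DNA probe bound by EBNA-1 protein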
[11] = biological target: 5-hydroxytryptamine receptor 5A (Homo sapiens, UniProt P47898); assay: Counterscreen for agonists of OPRM1-OPRD1 heterodimerization: luminescence-based cell-based high throughput dose response assay to identify agonists of 5-hydroxytryptamine (serotonin) 5A receptor (HTR5A). [Related pubchem assays (depositor defined):AID504326, AID504355, AID504692, AID504904, AID504905]; format: functional
[12] = biological target: Delta-type opioid receptor (Homo sapiens, UniProt P41143); assay: Counterscreen for agonists of heterodimerization of the mu 1 (OPRM1) and delta 1 (OPRD1) opioid receptors: Luminescence-based cell-based high throughput dose response assay to identify agonists of OPRD1 homodimerization. [Related pubchem assays (depositor defined):AID504326, AID504355, AID504692, AID504904, AID504905]; format: functional
Mu-type opioid receptor = Mu-type opioid receptor (Homo sapiens, UniProt P35372); assay: Counterscreen for agonists of heterodimerization of the mu 1 (OPRM1) and delta 1 (OPRD1) opioid receptors: Luminescence-based cell-based high throughput dose response assay to identify agonists of OPRM1 homodimerization.; format: functional;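 further: U2OS cells expressing OPRM1 and beta-arrestin as split beta-galactosidase partners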
Jurkat = assay: SAR Analysis of small molecule inhibitors of […] specific antigen receptor-induced NF-kB activation in a Jurkat cell line using a luminescence assay - Set 3. [Related pubchem assays (depositor defined):AID435022, AID435025, AID465]; format: functional, cell-based; details: Homo sapiens
HEK293 [13] = assay: SAR Analysis of small molecule inhibitors of B-cell specific antigen receptor-induced NF-kB activation in a HEK-293T cell line using a luminescence assay - Set 2. [Related pubchem assays (depositor defined):AID435022, AID435025, AID489021]; format: functional, cell-based; details: Homo sapiens
HEK293 [14] = assay: HEK293T cell viability loss, resazurin readout – resazurin fluorescence, cytotoxicity control for NF-kB activator project, SAR follow-up (AID 493251); format: functional, cell-based; details: Homo sapiens

T1 sequence (P11940 whole entry, the tested form may be a part): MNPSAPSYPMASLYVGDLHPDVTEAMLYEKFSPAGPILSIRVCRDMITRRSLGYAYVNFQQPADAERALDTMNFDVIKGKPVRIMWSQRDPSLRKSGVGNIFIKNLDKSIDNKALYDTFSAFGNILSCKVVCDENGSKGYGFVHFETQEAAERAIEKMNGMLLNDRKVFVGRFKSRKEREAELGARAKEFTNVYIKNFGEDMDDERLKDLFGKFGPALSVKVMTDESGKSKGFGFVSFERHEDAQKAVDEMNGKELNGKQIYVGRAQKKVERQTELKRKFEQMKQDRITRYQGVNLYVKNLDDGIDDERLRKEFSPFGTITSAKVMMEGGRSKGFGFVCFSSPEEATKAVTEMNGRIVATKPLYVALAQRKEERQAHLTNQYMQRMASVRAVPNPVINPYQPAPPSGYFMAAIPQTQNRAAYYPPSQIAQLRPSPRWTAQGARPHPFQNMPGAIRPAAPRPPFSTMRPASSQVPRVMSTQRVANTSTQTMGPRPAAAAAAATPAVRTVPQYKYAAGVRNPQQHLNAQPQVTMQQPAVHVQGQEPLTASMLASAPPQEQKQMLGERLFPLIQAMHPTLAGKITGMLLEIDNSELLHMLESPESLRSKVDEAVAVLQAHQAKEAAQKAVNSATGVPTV
T4 sequence (Q8VNN2 whole entry): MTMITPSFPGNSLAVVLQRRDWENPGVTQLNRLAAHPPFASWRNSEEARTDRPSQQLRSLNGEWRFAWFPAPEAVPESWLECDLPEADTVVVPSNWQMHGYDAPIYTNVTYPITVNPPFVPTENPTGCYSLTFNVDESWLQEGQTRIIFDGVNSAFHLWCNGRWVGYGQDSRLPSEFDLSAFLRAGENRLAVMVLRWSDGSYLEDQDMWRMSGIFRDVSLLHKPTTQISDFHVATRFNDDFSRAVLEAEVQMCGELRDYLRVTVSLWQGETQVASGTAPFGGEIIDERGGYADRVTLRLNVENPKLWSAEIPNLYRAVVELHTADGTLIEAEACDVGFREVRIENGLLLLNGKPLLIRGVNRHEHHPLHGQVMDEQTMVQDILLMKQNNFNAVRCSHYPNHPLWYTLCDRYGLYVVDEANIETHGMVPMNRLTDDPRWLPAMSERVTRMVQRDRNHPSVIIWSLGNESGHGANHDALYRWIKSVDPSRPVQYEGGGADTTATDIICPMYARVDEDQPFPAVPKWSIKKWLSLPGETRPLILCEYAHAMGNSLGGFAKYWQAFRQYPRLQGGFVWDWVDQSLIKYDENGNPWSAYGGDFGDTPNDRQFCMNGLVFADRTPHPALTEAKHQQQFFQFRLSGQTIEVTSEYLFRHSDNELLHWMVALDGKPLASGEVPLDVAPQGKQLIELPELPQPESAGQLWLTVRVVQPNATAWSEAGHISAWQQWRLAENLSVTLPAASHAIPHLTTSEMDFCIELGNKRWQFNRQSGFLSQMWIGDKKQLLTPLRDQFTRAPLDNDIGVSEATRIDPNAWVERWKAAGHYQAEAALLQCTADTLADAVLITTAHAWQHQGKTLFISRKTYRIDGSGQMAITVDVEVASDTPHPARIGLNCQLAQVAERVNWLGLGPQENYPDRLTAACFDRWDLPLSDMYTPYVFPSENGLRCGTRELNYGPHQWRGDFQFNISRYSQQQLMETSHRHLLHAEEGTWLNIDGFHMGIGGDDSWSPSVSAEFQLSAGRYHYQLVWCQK
Sequence of Mu-type opioid receptor (P35372 whole entry): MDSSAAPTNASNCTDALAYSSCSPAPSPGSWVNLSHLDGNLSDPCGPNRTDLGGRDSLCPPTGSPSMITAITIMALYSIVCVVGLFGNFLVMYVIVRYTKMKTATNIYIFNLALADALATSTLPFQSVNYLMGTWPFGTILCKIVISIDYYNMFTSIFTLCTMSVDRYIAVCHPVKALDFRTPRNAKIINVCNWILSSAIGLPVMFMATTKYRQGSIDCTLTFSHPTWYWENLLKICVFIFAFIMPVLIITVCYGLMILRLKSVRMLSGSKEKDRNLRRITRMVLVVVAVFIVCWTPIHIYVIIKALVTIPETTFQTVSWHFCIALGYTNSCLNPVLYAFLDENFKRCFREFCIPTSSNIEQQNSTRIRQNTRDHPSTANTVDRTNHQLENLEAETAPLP
Sequence of Delta-type opioid receptor (P41143 whole entry): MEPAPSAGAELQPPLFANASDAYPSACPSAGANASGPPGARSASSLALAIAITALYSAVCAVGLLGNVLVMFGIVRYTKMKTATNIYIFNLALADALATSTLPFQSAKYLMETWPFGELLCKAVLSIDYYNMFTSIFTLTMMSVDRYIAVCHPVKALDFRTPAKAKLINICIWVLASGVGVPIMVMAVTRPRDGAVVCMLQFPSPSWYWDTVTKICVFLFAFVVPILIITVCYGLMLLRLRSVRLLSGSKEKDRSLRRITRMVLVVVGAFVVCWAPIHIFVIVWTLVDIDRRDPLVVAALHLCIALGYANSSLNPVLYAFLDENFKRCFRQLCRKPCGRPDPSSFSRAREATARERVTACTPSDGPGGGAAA
Sequence of Genome polyprotein (P29990 2492-3391 limits assumed): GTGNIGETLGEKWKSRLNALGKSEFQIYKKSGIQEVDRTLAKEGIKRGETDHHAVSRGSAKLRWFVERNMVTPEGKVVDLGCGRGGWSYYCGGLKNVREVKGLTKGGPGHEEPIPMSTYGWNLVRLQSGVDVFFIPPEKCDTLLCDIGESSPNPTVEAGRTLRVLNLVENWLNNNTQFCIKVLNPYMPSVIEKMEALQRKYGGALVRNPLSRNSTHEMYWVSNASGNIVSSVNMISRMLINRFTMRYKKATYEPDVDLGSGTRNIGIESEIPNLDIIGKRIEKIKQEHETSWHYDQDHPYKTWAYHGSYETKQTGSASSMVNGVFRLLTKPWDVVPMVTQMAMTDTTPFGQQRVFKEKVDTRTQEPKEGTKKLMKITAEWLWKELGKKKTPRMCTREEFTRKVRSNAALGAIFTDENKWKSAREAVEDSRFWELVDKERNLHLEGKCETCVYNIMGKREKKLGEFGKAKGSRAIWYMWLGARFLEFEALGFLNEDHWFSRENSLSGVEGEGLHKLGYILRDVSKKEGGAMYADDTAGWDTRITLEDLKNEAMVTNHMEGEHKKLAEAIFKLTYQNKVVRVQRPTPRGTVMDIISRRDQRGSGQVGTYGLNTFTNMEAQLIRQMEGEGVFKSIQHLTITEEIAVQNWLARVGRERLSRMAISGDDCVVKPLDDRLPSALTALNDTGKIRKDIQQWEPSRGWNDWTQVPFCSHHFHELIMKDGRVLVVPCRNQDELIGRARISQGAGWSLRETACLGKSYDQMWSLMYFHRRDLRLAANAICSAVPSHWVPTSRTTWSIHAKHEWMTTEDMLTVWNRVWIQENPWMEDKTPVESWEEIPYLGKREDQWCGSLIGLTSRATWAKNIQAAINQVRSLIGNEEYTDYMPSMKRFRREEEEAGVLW
Sequence of Type-1 angiotensin II receptor (P30556 whole entry): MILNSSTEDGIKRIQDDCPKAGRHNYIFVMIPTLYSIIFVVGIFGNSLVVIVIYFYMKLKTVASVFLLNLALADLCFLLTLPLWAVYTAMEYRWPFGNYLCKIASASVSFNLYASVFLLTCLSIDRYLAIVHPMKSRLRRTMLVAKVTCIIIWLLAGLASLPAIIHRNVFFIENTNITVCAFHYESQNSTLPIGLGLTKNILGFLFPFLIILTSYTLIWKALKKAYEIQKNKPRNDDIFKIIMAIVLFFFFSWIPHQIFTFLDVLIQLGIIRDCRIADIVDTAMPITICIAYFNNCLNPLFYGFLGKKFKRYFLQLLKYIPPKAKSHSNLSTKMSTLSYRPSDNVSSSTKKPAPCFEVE
Sequence of Beta-arrestin-1 (P49407 whole entry): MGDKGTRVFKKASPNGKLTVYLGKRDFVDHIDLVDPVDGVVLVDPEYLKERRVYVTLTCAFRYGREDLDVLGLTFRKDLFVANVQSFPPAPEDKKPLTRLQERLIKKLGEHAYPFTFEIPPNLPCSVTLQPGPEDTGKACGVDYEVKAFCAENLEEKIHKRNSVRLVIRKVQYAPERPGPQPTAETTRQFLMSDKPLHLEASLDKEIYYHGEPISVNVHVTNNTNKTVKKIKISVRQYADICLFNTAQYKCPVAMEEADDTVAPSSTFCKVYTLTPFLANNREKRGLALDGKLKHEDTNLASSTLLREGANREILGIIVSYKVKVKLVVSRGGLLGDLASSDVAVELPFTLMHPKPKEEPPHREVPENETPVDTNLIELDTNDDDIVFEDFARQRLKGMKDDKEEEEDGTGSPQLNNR
Sequence of Epstein-Barr nuclear antigen 1 (P03211 whole entry): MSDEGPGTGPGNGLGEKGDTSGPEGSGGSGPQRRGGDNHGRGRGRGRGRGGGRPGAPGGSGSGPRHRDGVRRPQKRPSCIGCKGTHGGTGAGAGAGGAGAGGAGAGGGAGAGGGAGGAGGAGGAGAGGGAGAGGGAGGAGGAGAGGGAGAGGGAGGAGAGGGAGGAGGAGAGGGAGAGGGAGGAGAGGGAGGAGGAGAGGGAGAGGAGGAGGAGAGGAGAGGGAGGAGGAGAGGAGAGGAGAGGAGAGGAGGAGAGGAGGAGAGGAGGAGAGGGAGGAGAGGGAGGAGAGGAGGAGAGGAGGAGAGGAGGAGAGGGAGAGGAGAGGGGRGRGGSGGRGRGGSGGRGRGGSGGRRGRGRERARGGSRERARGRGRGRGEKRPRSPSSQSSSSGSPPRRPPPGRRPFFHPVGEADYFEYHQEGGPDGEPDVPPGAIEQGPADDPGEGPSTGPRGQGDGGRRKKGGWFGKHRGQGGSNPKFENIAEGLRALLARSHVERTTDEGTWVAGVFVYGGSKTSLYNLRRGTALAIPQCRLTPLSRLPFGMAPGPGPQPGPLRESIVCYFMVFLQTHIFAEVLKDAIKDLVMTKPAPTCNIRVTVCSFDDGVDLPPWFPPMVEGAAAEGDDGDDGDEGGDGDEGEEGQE
Sequence of Lytic switch protein BZLF1 (P03206 whole entry): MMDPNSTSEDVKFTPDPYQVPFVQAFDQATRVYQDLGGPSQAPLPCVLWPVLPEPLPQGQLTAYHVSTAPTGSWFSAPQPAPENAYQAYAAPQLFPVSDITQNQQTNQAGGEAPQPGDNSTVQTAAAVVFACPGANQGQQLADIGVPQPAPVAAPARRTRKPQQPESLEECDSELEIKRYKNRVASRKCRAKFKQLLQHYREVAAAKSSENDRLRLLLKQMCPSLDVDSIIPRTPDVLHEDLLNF

With O=C1C(Cl)=C(NC(=O)c2ccccc2)C(=O)C(Cl)=C1NC(=O)c1ccccc1 the EC50 [1] was 2.78 µM (active), the IC50 [2] was > 66 µM (inactive) and the IC50 (Genome polyprotein) was 3.53 µM (active). The CC50 (Vero) was 29.5 µM (active), the IC50 [3] was 44.5 µM (inactive) and the IC50 (Hexokinase HKDC1) was 17.3 µM (active). For the same molecule, the IC50 [4] was 6.06 µM (active), the EC50 [5] was 2.13 µM (active) and the IC50 (Beta-arrestin-1) was 4.97 µM (active). The IC50 (Beta-galactosidase [6]) was > 66.6 µM (inactive).
In the case of CC(C)C(=O)Nc1cccc(C(=O)OCC(=O)c2ccc(Cl)cc2Cl)c1, the IC50 [7] is reported as > 40 µM (not active), the EC50 (Beta-galactosidase [8]) is reported as > 40 µM (inactive) and the IC50 [9] is reported as > 111 µM (not active). The IC50 [10] was 11.3 µM (not active).
For O=S(=O)(c1c(Cl)cc(Br)cc1Cl)N1CCN(C(=S)NC2CC2)CC1, the EC50 [11] was > 92.5 µM (inactive), the EC50 [12] was 11.9 µM (inactive) and the EC50 (Mu-type opioid receptor) was > 92.5 µM (inactive).
In the case of CNC(=O)CCc1nc(-c2ccc(Cl)cc2)no1, the IC50 (Jurkat) is reported as > 80 µM (inactive), the IC50 (HEK293 [13]) is reported as > 80 µM (inactive) and the IC50 (HEK293 [14]) is reported as > 80 µM (inactive).
